Reference: patent US9828368B2 (MERCK SHARP & DOHME CORP., priority 2013, dated 2017)
Read-outs that look alike come from different tables or passages of the source.

Columns and labels:
hOX1R = hOX1R (Homo sapiens, UniProt O43613); assay: FLIPR Ca2+ flux assay, hOX1R; type: cell-based
human orexin-2 receptor = human orexin-2 receptor (Homo sapiens (Human), UniProt O43614); assay: FLIPR Ca2+ flux assay, hOX2R; type: cell-based; details: CHO cells expressing human orexin-2 receptor; agonist 70 pM Ala-6,12 orexin-A
Sequence of human orexin-2 receptor (O43614 whole entry): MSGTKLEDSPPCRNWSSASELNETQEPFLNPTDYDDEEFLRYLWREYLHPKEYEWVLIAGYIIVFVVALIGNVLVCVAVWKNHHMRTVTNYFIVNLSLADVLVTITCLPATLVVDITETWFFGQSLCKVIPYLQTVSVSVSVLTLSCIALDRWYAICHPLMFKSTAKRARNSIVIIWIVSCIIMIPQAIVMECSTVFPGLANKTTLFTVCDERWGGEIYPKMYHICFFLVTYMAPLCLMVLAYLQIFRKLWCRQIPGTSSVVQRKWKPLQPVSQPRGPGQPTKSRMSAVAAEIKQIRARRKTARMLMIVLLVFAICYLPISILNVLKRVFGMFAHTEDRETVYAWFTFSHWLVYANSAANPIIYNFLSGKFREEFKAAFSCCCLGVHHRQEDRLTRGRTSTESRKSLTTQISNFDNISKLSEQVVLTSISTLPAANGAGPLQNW
Protocol: In a typical experiment the OX1 and OX2 receptor antagonistic activity of the compounds of the present invention was determined in accordance with the following experimental method. For intracellular calcium measurements, Chinese hamster ovary (CHO) cells expressing the rat orexin-1 receptor or the human orexin-2 receptor, are grown in Iscove's modified DMEM containing 2 mM L-glutamine, […], 1% hypoxanthine-thymidine supplement, 100 U/ml penicillin, 100 μg/ml streptomycin and 10% heat-inactivated fetal calf serum (FCS). The cells are seeded at 20,000 cells/well into Becton-Dickinson black 384-well clear bottom sterile plates coated with poly-D-lysine. All reagents were from GIBCO-Invitrogen Corp. The seeded plates are incubated overnight at 37° C. and 5% CO2. Ala-6,12 human orexin-A as the agonist is prepared as a 1 mM stock solution in 1% bovine serum albumin (BSA) and diluted in assay buffer (HBSS containing 20 mM HEPES, 0.1% BSA and 2.5 mM probenecid, pH7.4) for use in the assay at a final concentration of 70 pM. Test compounds are prepared as 10 mM stock solution in DMSO, then diluted in 384-well plates, first in DMSO, then assay buffer. On the day of the assay, cells are washed 3 times with 100 μl assay buffer and then incubated for 60 min (37° C., 5% CO2) in 60 μl assay buffer containing 1 μM Fluo-4AM ester, 0.02% pluronic acid, and 1% BSA. The dye loading solution is then aspirated and cells are washed 3 times with 100 μl assay buffer. 30 μl of that same buffer is left in each well. Within the Fluorescent Imaging Plate Reader (FLIPR, Molecular Devices), test compounds are added to the plate in a volume of 25 μl, incubated for 5 min and finally 25 μl of agonist is added. Fluorescence is measured for each well at 1 second intervals for 5 minutes and the height of each fluorescence peak is compared to the height of the fluorescence peak induced by 70 pM Ala-6,12 orexin-A with buffer in place of antagonist. […] The intrinsic orexin receptor antagonist activity of a compound which may be used in the present invention may be determined by these assays.

[1] = CHO cells, agonist 70 pM Ala-6,12 orexin-A, rat orexin-1 receptor, read-out: hOX1R FLIPR IC50

| SMILES | IC50 (hOX1R; [1]) | IC50 (human orexin-2 receptor) | IC50 (hOX1R) |
| --- | --- | --- | --- |
| CC(O)c1nc([C@@H]2CC[C@@H](C)N(C(=O)c3ccccc3-n3nccn3)C2)oc1-c1ccccc1 (single isomer, unassigned) [Example 64] | 0.136 µM | 0.076 µM | – |
| CC(O)c1nc([C@@H]2CC[C@@H](C)N(C(=O)c3ccccc3-n3nccn3)C2)oc1-c1ccccc1 (single isomer, unassigned) [Example 65] | 0.155 µM | 0.13 µM | – |
| CCC(C)(O)c1nc([C@@H]2CC[C@@H](C)N(C(=O)c3ccsc3-n3nccn3)C2)oc1C (stereo in doubt) [Example 48, (2-(2H-1,2,3-Triazol-2-yl)thiophen-3-yl)((2R,5R)-5-(4-((S)-2-hydroxybutan-2-yl)-5-methyloxazol-2-yl)-2-methylpiperidin-1-yl)methanone] | 1.81 µM | – | – |
| C[C@@H]1CC[C@@H](c2nc(Br)co2)CN1C(=O)c1ccccc1-n1nccn1 [Example 1, (2-(2H-1,2,3-Triazol-2-yl)phenyl)((2R,5R)-5-(4-bromooxazol-2-yl)-2-methylpiperidin-1-yl)methanone] | – | 0.138 µM | ~7.9 µM |
| COC(=O)C1CC1c1coc([C@@H]2CC[C@@H](C)N(C(=O)c3ccccc3-n3nccn3)C2)n1 (stereo partly drawn) [Example 2, Methyl 2-(2-((3R,6R)-1-(2-(2H-1,2,3-triazol-2-yl)benzoyl)-6-methylpiperidin-3-yl)oxazol-4-yl)cyclopropanecarboxylate] | 3 µM | 0.049 µM | – |
| C[C@@H]1CC[C@@H](c2nc(C3CC3)co2)CN1C(=O)c1ccccc1-n1nccn1 [Example 4, (2-(2H-1,2,3-Triazol-2-yl)phenyl)((2R,5R)-5-(4-cyclopropyloxazol-2-yl)-2-methylpiperidin-1-yl)methanone] | 0.7 µM | 0.047 µM | – |
| C[C@@H]1CC[C@@H](c2nc(-c3ccccc3CO)co2)CN1C(=O)c1ccccc1-n1nccn1 [Example 5, (2-(2H-1,2,3-Triazol-2-yl)phenyl)((2R,5R)-5-(4-(2-(hydroxymethyl)phenyl)oxazol-2-yl)-2-methylpiperidin-l-yl)methanone] | 0.046 µM | 0.03 µM | – |
| C[C@@H]1CC[C@@H](c2nc(-c3cccc(F)n3)co2)CN1C(=O)c1ccccc1-n1nccn1 [Example 6, (2-(2H-1,2,3-Triazol-2-yl)phenyl)((2R, 5R)-5-(4-(6-fluoropyridin-2-yl)oxazol-2-yl)-2-methylpiperidin-1-yl)methanone] | 0.67 µM | 0.15 µM | – |
| Cc1cccc(-c2coc([C@@H]3CC[C@@H](C)N(C(=O)c4ccccc4-n4nccn4)C3)n2)c1 [Example 7, (2-(2H-1,2,3-Triazol-2-yl)phenyl)((2R,5R)-2-methyl-5-(4-(m-tolyl)oxazol-2-yl)piperidin-1-yl)methanone] | 0.26 µM | 0.41 µM | – |
| C[C@@H]1CC[C@@H](c2nc(C(C)(C)O)co2)CN1C(=O)c1ccccc1-n1nccn1 [Example 10, (2-(2H-1,2,3-Triazol-2-yl)phenyl)((2R,5R)-5-(4-(2-hydroxypropan-2-yl)oxazol-2-yl)-2-methylpiperidin-1-yl)methanone] | 2.7 µM | 0.059 µM | – |
| C[C@@H]1CC[C@@H](c2nc(C#N)c(Br)o2)CN1C(=O)c1ccccc1-n1nccn1 [Example 11, 2-((3R,6R)-1-(2-(2H-1,2,3-Triazol-2-yl)benzoyl)-6-methylpiperidin-3-yl)-5-bromooxazole-4-carbonitrile] | > 10 µM | 0.35 µM | – |
| COC(=O)c1nc([C@@H]2CC[C@@H](C)N(C(=O)c3ccccc3-n3nccn3)C2)oc1Br [Example 12, Methyl 2-((3R,6R)-1-(2-(2H-1,2,3-Triazol-2-yl)benzoyl)-6-methylpiperidin-3-yl)-5-bromooxazole-4-carboxylate] | 0.875 µM | 0.03 µM | – |
| Cc1oc([C@@H]2CC[C@@H](C)N(C(=O)c3ccccc3-n3nccn3)C2)nc1C(C)(C)O [Example 13, (2-(2H-1,2,3-Triazol-2-yl)phenyl)((2R,5R)-5-(4-(2-hydroxypropan-2-yl)-5-methyloxazol-2-yl)-2-methylpiperidin-1-yl)methanone] | 0.815 µM | 0.0128 µM | – |
| C[C@@H]1CC[C@@H](c2nc(C(C)(C)O)c(C3CC3)o2)CN1C(=O)c1ccccc1-n1nccn1 [Example 14, (2-(2H-1,2,3-Triazol-2-yl)phenyl)((2R,5R)-5-(5-cyclopropyl-4-(2-hydroxypropan-2-yl)oxazol-2-yl)-2-methylpiperidin-1-yl)methanone] | 0.021 µM | 0.019 µM | – |
| CC(C)c1oc([C@@H]2CC[C@@H](C)N(C(=O)c3ccccc3-n3nccn3)C2)nc1C(C)(C)O [Example 15, (2-(2H-1,2,3-Triazol-2-yl)phenyl)((2R,5R)-5-(4-(2-hydroxypropan-2-yl)-5-isopropyloxazol-2-yl)-2-methylpiperidin-1-yl)methanone] | 0.01 µM | 0.017 µM | – |
| C[C@@H]1CC[C@@H](c2nc(C(C)(C)C)co2)CN1C(=O)c1ccccc1-n1nccn1 [Example 16, (2-(2H-1,2,3-Triazol-2-yl)phenyl)((2R,5R)-5-(4-(tert-butyl)oxazol-2-yl)-2-methylpiperidin-1-yl)methanone] | 0.29 µM | 0.06 µM | – |
| C[C@@H]1CC[C@@H](c2nc(-c3ccccc3)co2)CN1C(=O)c1ccccc1-n1nccn1 [Example 17, (2-(2H-1,2,3-Triazol-2-yl)phenyl)((2R,5R)-2-methyl-5-(4-phenyloxazol-2-yl)piperidin-1-yl)methanone] | 0.12 µM | 0.038 µM | – |
| Cc1oc([C@@H]2CC[C@@H](C)N(C(=O)c3ccccc3-n3nccn3)C2)nc1[C@@H](O)C(F)(F)F [Example 18, (2-(2H-1,2,3-Triazol-2-yl)phenyl)((2R,5R)-2-methyl-5-(5-methyl-4-((R)-2,2,2-trifluoro-1-hydroxyethyl)oxazol-2-yl)piperidin-1-yl)methanone] | 0.42 µM | 0.0139 µM | – |
| Cc1oc([C@@H]2CC[C@@H](C)N(C(=O)c3ccccc3-n3nccn3)C2)nc1[C@H](O)C(F)(F)F [Example 19, (2-(2H-1,2,3-triazol-2-yl)phenyl)((2R,5R)-2-methyl-5-(5-methyl-4-((S)-2,2,2-trifluoro-1-hydroxyethyl)oxazol-2-yl)piperidin-1-yl)methanone] | 0.79 µM | 0.024 µM | – |
| Cc1oc([C@@H]2CC[C@@H](C)N(C(=O)c3ccccc3C3(C#N)CC3)C2)nc1C(C)(C)O [Example 20, 1-(2-((2R,5R)-5-(4-(2-Hydroxypropan-2-yl)-5-methyloxazol-2-yl)-2-methylpiperidine-1-carbonyl)phenyl)cyclopropanecarbonitrile] | 0.425 µM | 0.0166 µM | – |
| Cc1oc([C@@H]2CC[C@@H](C)N(C(=O)c3ccccc3C3(C#N)CCOCC3)C2)nc1C(C)(C)O [Example 21] | > 10 µM | 0.5 µM | – |
| CCOc1ncccc1C(=O)N1C[C@H](c2nc(C(C)(C)O)c(C)o2)CC[C@H]1C [Example 22, (2-Ethoxypyridin-3-yl)((2R,5R)-5-(4-(2-hydroxypropan-2-yl)-5-methyloxazol-2-yl)-2-methylpiperidin-1-yl)methanone] | > 10 µM | 0.297 µM | – |
| Cc1oc([C@@H]2CC[C@@H](C)N(C(=O)c3cccc4ccnn34)C2)nc1C(C)(C)O [Example 23, ((2R,5R)-5-(4-(2-Hydroxypropan-2-yl)-5-methyloxazol-2-y1)-2-methylpiperidin-1-yl)(pyrazolo[1,5-a]pyridin-7-yl)methanone] | > 10 µM | 0.11 µM | – |
| COc1ccccc1C(=O)N1C[C@H](c2nc(C(C)(C)O)c(C)o2)CC[C@H]1C [Example 31, ((2R,5R)-5-(4-(2-Hydroxypropan-2-yl)-5-methyloxazol-2-yl)-2-methypiperidin-1-yl)(2-methoxyphenyl)methanone] | – | 0.08 µM | – |
| Cc1oc([C@@H]2CC[C@@H](C)N(C(=O)c3cscc3-c3ncccn3)C2)nc1C(C)(C)O [Example 36] | > 10 µM | – | – |
| CC[C@](C)(O)c1nc([C@@H]2CC[C@@H](C)N(C(=O)c3ccsc3-n3nccn3)C2)oc1C [Example 49, (2-(2H-1,2,3-triazol-2-yl)thiophen-3-yl)((2R,5R)-5-(4-((S)-2-hydroxybutan-2-yl)-5-methyloxazol-2-yl)-2-methylpiperidin-1-yl)methanone] | 1.74 µM | – | – |
| C[C@@H]1CC[C@@H](c2nc(CN(C)C)c(-c3ccccc3)o2)CN1C(=O)c1ccccc1-n1nccn1 [Example 66, (2-(2H-1,2,3-Triazol-2-yl)phenyl)((2R,5R)-5-(4-((dimethylamino)methyl)-5-phenyloxazol-2-yl)-2-methylpiperidin-1-yl)methanone] | – | 0.983 µM | – |
| COC(=O)Cc1nc([C@@H]2CC[C@@H](C)N(C(=O)c3ccccc3-n3nccn3)C2)oc1-c1ccccc1 [Example 67] | 0.093 µM | – | – |
